Laboratory results from ChEMBL document CHEMBL3632477 (2015).
Where a SMILES comes first, the peptide text is derived from it. Bridges are numbered along the chain shown (N, C = ends). [ ]: non-standard residue; d: D form. Bip(2'-Et-4'-OMe) = CCc1cc(OC)ccc1-c1ccc(C[C@H](N)C(=O)O)cc1; αMePhe(2,6-F2) = C[C@](N)(Cc1c(F)cccc1F)C(=O)O; Bip = N[C@@H](Cc1ccc(-c2ccccc2)cc1)C(=O)O; αMePhe(2-F) = C[C@](N)(Cc1ccccc1F)C(=O)O; hhPhe = N[C@@H](CCCc1ccccc1)C(=O)O; Aib = CC(C)(N)C(=O)O

target: Glucagon-like peptide 1 receptor (Homo sapiens, UniProt P43220); assay: Agonist activity at human GLP-1R expressed in CHO-K1 cells assessed as increase in cAMP level incubated for 30 mins; format: functional, cell-based
Sequence (P43220 whole entry): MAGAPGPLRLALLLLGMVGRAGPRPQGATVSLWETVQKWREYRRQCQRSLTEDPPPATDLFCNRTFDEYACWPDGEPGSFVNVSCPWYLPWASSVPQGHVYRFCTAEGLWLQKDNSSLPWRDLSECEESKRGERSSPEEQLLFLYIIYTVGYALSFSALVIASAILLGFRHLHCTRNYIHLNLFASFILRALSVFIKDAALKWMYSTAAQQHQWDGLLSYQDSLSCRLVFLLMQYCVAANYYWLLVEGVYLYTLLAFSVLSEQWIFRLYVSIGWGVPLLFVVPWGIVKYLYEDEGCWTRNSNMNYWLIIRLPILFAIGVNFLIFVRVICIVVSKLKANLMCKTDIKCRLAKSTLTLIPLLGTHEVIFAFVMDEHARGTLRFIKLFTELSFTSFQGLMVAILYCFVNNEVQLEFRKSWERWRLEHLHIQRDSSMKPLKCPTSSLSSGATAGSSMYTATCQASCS

| SMILES | EC50 |
| --- | --- |
| CCc1cc(OC)ccc1-c1ccc(C[C@H](NC(=O)[C@H](CC(=O)O)NC(=O)[C@H](CO)NC(=O)[C@@H](NC(=O)[C@](C)(Cc2c(F)cccc2F)NC(=O)[C@@H](NC(=O)CNC(=O)[C@H](CCC(=O)O)NC(=O)[C@@H]2CCCN2C(=O)[C@@H](N)Cc2cnc[nH]2)[C@@H](C)O)[C@@H](C)O)C(=O)N[C@@H](CCCc2ccccc2)C(=O)N[C@H]2CSSC[C@@H](C(=O)N[C@@H](CO)C(=O)O)NC(=O)[C@H](C(C)C)NC(=O)[C@H](C(C)C)NC(=O)CNC(=O)[C@H](C(C)C)NC(=O)[C@H](C(C)C)NC(=O)[C@H](C(C)C)NC(=O)CNC(=O)CNC2=O)cc1 (H-HPEGT[αMePhe(2,6-F2)]TSD[Bip(2'-Et-4'-OMe)][hhPhe]CGGVVVGVVCS-OH; disulfide 12-21) | 19 nM |
| CC(C)C[C@@H]1NC(=O)[C@H](Cc2ccccc2)NC(=O)[C@H](CC(N)=O)NC(=O)[C@H](CCCNC(=N)N)NC(=O)[C@H](CCCCN)NC(=O)[C@@H]2CSSC[C@@H](C(N)=O)NC(=O)[C@H](CSSC[C@H](NC(=O)[C@@H](N)CO)C(=O)N[C@@H](CO)C(=O)N2)NC1=O (H-SCSCKRNFLCC-NH2; disulfide 2-10, 4-11) | 0.47 nM |
| CCc1cc(OC)ccc1-c1ccc(C[C@@H]2NC(=O)[C@H](CC(=O)O)NC(=O)[C@H](CO)NC(=O)[C@H]([C@@H](C)O)NC(=O)[C@](C)(Cc3c(F)cccc3F)NC(=O)[C@H]([C@@H](C)O)NC(=O)CNC(=O)[C@H](CCC(=O)O)NC(=O)[C@@H]3CCCN3C(=O)[C@H](Cc3cnc[nH]3)NC(=O)[C@H](CO)NC(=O)[C@@H]3CSSC[C@H](NC(=O)[C@H](CCCc4ccccc4)NC2=O)C(=O)NCC(=O)NCC(=O)N[C@@H](C)C(=O)N[C@@H](C)C(=O)NCC(=O)NCC(=O)NCC(=O)N[C@@H](C)C(=O)N3)cc1 (cyclo(AAGGGACSHPEGT[αMePhe(2,6-F2)]TSD[Bip(2'-Et-4'-OMe)][hhPhe]CGG); disulfide 7-20) | 430 nM |
| CCc1cc(OC)ccc1-c1ccc(C[C@H](NC(=O)[C@H](CS)NC(=O)[C@H](CO)NC(=O)[C@@H](NC(=O)[C@](C)(Cc2ccccc2F)NC(=O)[C@H](CS)NC(=O)CNC(=O)[C@H](CCC(=O)O)NC(=O)C(C)(C)NC(=O)[C@@H](N)Cc2cnc[nH]2)[C@@H](C)O)C(=O)N[C@@H](CCCc2ccccc2)C(N)=O)cc1 (H-H[Aib]EGC[αMePhe(2-F)]TSC[Bip(2'-Et-4'-OMe)][hhPhe]-NH2) | 850 nM |
| CCc1cc(OC)ccc1-c1ccc(C[C@H](NC(=O)[C@H](CC(=O)O)NC(=O)[C@H](CO)NC(=O)[C@@H](NC(=O)[C@](C)(Cc2c(F)cccc2F)NC(=O)[C@@H](NC(=O)CNC(=O)[C@H](CCC(=O)O)NC(=O)[C@@H]2CCCN2C(=O)[C@@H](N)Cc2cnc[nH]2)[C@@H](C)O)[C@@H](C)O)C(=O)N[C@@H](CCCc2ccccc2)C(=O)N[C@H]2CSSC[C@@H](C(=O)N[C@@H](CO)C(=O)O)NC(=O)[C@H](C)NC(=O)CNC(=O)CNC(=O)CNC(=O)[C@H](C)NC(=O)[C@H](C)NC(=O)[C@H](Cc3ccc(-c4ccccc4)cc3)NC(=O)CNC2=O)cc1 (H-HPEGT[αMePhe(2,6-F2)]TSD[Bip(2'-Et-4'-OMe)][hhPhe]CG[Bip]AAGGGACS-OH; disulfide 12-21) | 2.4 nM |
| CCc1cc(OC)ccc1-c1ccc(C[C@@H]2NC(=O)[C@H](CC(=O)O)NC(=O)[C@H](CO)NC(=O)[C@@H]3CSSC[C@@H](C(=O)O)NC(=O)[C@H](CSSC[C@H](NC(=O)CNC(=O)[C@H](CCC(=O)O)NC(=O)C(C)(C)NC(=O)[C@@H](N)Cc4cnc[nH]4)C(=O)N[C@@](C)(Cc4c(F)cccc4F)C(=O)N3)NC(=O)[C@H](Cc3ccc(-c4ccccc4)cc3)NC(=O)[C@H](CCCc3ccccc3)NC2=O)cc1 (H-H[Aib]EGC[αMePhe(2,6-F2)]CSD[Bip(2'-Et-4'-OMe)][hhPhe][Bip]CC-OH; disulfide 5-13, 7-14) | 7500 nM |
| CCc1cc(OC)ccc1-c1ccc(C[C@H](NC(=O)[C@H](CC(=O)O)NC(=O)[C@H](CO)NC(=O)[C@@H](NC(=O)[C@](C)(Cc2c(F)cccc2F)NC(=O)[C@@H](NC(=O)CNC(=O)[C@H](CCC(=O)O)NC(=O)[C@@H]2CCCN2C(=O)[C@@H](N)Cc2cnc[nH]2)[C@@H](C)O)[C@@H](C)O)C(=O)N[C@@H](CCCc2ccccc2)C(=O)N[C@H]2CSSC[C@@H](C(=O)N[C@@H](CO)C(N)=O)NC(=O)[C@H](C)NC(=O)CNC(=O)CNC(=O)CNC(=O)[C@H](C)NC(=O)[C@H](C)NC(=O)CNC(=O)CNC2=O)cc1 (H-HPEGT[αMePhe(2,6-F2)]TSD[Bip(2'-Et-4'-OMe)][hhPhe]CGGAAGGGACS-NH2; disulfide 12-21) | 13 nM |
